No end group written: not given here.
Legend:
[1] = tested on: HeLa cells; assay: Co‐localization studies (confocal microscopy, PCC and MOC); format: cell-based; settings: 2 h, 5 μM CF‐DC‐2, CellLight ER‐RFP, mean ± SD of ≥37 cells, n = 2
Description: HeLa cells (30,000–40,000) were seeded into an 8‐well ibidi. For lysosomal and lipid droplet analysis, cells were treated for 30 min with 5 μM of CF‐labeled peptide combined with either 100 nM LysoTracker Red DND‐99 (Invitrogen) or a 1:1000 solution of distyryl Bodipy lipid droplet stain synthesized and kindly provided by Engelhardt et al.^[ [67] ^] diluted in serum‐free media under standard growth conditions. For Golgi analysis, cells were treated for 2 h with 5 μM CF‐labeled peptide under standard growth conditions. For the last 30 min of the incubation period, 1:100 BODIPY TR ceramide complexed to bovine serum albumine (BSA) (Invitrogen) was directly diluted into the well and incubated for the last 30 min together with the peptide. For ER staining, CellLight ER‐RFP, BacMam 2.0 (Invitrogen), was added to the cells and incubated overnight under standard growth conditions. The next day, the cells were treated for 2 h with 5 μM CF‐labeled peptides as described earlier. After the peptide and stain incubation, cells were washed three to four times with serum‐free medium. […] Pearson and Manders’ Coefficients were calculated using the JaCoP analysis tool.^[ [68] ^] For Golgi analysis, no PCC or MOC was determined as the unedited images contained a strong background signal.

[2] = tested on: HeLa cells; assay: Cellular uptake by flow cytometry; format: cell-based
Description: (§1) HeLa (90,000), MDA‐MB‐231 (120,000), and HFF‐1 (125,000) cells were seeded into a 24‐well plate. Cells were treated with the desired concentration of CF‐labeled peptide diluted in the appropriate serum‐free medium for 30 min at 37 °C and 5% CO2. Afterward, cells were washed once with PBS, detached from the plate using indicator‐free trypsin/EDTA and resuspended in indicator‐free culture medium. The cell mixture was measured on the Guava easyCyte flow cytometer (Merck) using the GRN‐B (520/30) detector.
CMA was synthesized and kindly provided by Azizi et al.^[ [33] ^] Cells were either treated with 20 μM CMA diluted in serum‐free media or 0.1% DMSO diluted in serum‐free media for 6 h at 37 °C with 5% CO2. Next, cells were washed once with serum‐free medium and 5 μM CF‐labeled peptides diluted in serum‐free medium were incubated for 30 min. Control cells were only treated with dimethylsulfoxide (DMSO) or 20 μM CMA.
For the preincubation assay, cells were either treated with 5 μM DC‐2 diluted in serum‐free medium or only serum‐free medium for 30 min at 37 °C and 5% CO2. Afterward, cells were washed once with serum‐free medium and treated with 5 μM CF‐labeled DC‐2 for 30 min at 37 °C and 5% CO2.
To block cell surface thiols, cells were incubated with either serum‐free medium or 1.2 mM 5,5′‐dithiobis‐(2‐nitrobenzoic acid) (Ellman's reagent, DTNB) diluted in serum‐free medium for 5 min. Next, untreated cells were treated with 1 μM of CF‐labeled DC‐2 or DC‐2dis diluted in serum‐free medium and DTNB‐pretreated cells with 1 μM of CF‐labeled DC‐2 or DC‐2dis and 1.2 mM DTNB in serum‐free medium for 30 min at 37 °C and 5% CO2 as described by Aubry et al.^[ [47] ^]

[3] = tested on: MDA‐MB‐231; assay: Cellular uptake by flow cytometry; format: cell-based; settings: MDA‐MB‐231, 30 min, 5 μM CF‐labeled peptides, serum-free medium, 37 °C, n ≥ 3 (Figure 3E)
Description: as §1

[4] = tested on: HFF‐1 cells; assay: Cellular uptake by flow cytometry; format: cell-based, human; settings: HFF‐1, 30 min, 5 μM CF‐labeled peptides, serum-free medium, 37 °C, n ≥ 3 (Figure 3F)
Description: as §1

[5] = tested on: MCF‐10 A breast spheroid; assay: Confocal time‐lapse imaging of spheroids; format: cell-based, human; settings: 10‐day‐old MCF‐10 A spheroids, 10 μM CF‐labeled peptide, imaged every 45 s for 20 min, n ≥ 2 (Figure 7)
Description: Spheroids from single MCF10‐A cells were generated for 10 days as described in ref. [66]. For further analyses, spheroids were isolated from EHS matrix through incubation in 2 mL ice‐cold cell recovery solution (BD Biosciences) for 30 min (4 °C). Next, spheroids were washed with fresh EGF‐free medium and individually picked under a stereo microscope for seeding onto 35 mm cell culture dishes with microscopic glass bottoms (Cover Slip, 24 × 24 mm, #1.5 HP, Menzel‐Gläser). Spheroids adhered to glass substrates for 15 min (RT) and were subsequently covered with 0.9 mL fresh EGF‐free growth medium.
Live‐cell imaging was performed at 37 °C and 5% CO2 (cell incubator XL, Zeiss, Germany) with an inverse confocal laser scanning microscope (LSM880 with Airyscan detector) that used a 40x LD C‐Apochromat water immersion objective (NA 1.1, Zeiss). Before addition of peptides, control images were taken. Subsequently, peptide was added to a final concentration of 10 μM and spheroids immediately imaged every 45 s for 20 min. The observed plane was at the equatorial plane of a spheroid, where the diameter was largest. Images were taken with Fast Airyscan and subsequent processing using the ZEN 2.3 black software (Zeiss). Z‐stacks were taken right after the time series in 1 μm steps with the same microscopic settings.

GLRKRLRKFRNKKMDHHCPW-NH2 [DC‐2, CPP sC18* fused to the DHHC motif derived from ZDHHC2/3/6/7/15/16/20]
Mander's overlap coefficient (MOC), ER [1]: 0.60 ± 0.20
Pearson correlation coefficient (PCC), ER [1]: 0.37 ± 0.10
effect of blocking cell surface thiols (DTNB) on cellular uptake ([2]; 5 min 1.2 mM DTNB, then 1 μM CF‐labeled peptide with DTNB 30 min, flow cytometry, n = 3 (Figure S8C)): no significant difference
effect of pretreatment with unlabeled DC‐2 on peptide uptake ([2]; 30 min 5 μM unlabeled DC‐2, then 30 min 5 μM CF‐DC‐2, flow cytometry, n = 3 (Figure S5E)): no significant difference in the quantity of peptide uptake
cellular uptake in medium lacking L‐cystine ([2]; 30 min, 5 µM CF-DC-2, flow cytometry, n = 3 (Figure S8B)): slightly increased
cellular uptake (in words) ([2]; 30 min, 5 μM CF‐labeled peptides, serum-free medium, 37 °C, flow cytometry, n ≥ 3 (Figure 3D, 5C)): internalized to a higher extent compared to DC‐4
cellular uptake (in words) [3]: internalized to a higher extent compared to DC‐4
cellular uptake (in words) [4]: internalized to a higher extent compared to DC‐4
infiltration of basement membrane (BM)‐covered spheroids [5]: efficiently surpassed the BM and translocated into many cells
